Assay results published in patent US20250213705A1, “PSMA TARGETING LIGANDS AND METHODS OF USE” (Bright Peak Therapeutics AG, priority 2023, published 2025).

Key:
[1] = biological target: Recombinant Human PSMA/FOLH1 Protein (Homo sapiens (Human), UniProt Q04609); assay: Inhibition assay (Amplex Red glutamic acid/glutamate oxidase, NAAG substrate); type: biochemical; conditions: Target PSMA, average of N replicates; for IC50: PSMA 5 nM, NAAG 40 μM; for Ki: calculated based on Cheng-Prusoff equation
Recombinant Human PSMA/FOLH1 Protein, sequence (Q04609 whole entry): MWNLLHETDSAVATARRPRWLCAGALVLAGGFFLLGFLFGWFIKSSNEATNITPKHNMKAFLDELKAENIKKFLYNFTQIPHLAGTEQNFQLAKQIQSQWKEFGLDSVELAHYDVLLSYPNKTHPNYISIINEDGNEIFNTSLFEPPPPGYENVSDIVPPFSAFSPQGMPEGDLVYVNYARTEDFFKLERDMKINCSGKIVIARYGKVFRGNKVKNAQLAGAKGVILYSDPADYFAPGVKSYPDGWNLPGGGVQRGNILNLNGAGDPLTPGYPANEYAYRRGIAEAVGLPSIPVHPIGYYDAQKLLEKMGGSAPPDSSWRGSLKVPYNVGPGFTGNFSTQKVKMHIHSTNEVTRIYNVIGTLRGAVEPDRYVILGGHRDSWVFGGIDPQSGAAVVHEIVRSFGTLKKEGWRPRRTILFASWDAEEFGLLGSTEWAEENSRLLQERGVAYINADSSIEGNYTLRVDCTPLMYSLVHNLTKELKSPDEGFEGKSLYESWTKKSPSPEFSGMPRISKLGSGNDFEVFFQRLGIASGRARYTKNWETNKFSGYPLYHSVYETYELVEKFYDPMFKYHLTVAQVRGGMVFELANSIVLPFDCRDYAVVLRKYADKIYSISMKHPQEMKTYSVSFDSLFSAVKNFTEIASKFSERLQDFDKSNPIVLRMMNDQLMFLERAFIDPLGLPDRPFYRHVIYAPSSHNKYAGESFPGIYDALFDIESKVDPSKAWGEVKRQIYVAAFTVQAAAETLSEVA
Description: Amplex™ Red Glutamic Acid/Glutamate Oxidase Assay Kit Catalog number: A12221 (Thermofisher); Recombinant Human PSMA/FOLH1 Protein, CF (rnd systems); N-Acetyl-Asp-Glu (NAAG) (Sigma Aldrich; 96 well half area plate; Enspire plate reader.
Prepare a working solution of 100 μM Amplex® Red reagent containing 0.25 U/mL HRP, 0.08 U/mL L-glutamate oxidase, 0.5 U/mL 1-glutamate-pyruvate transaminase, 200 μM L-alanine and keep protected from light. […] Final concentration is 5 nM. Transfer 10 μl/well of the inhibitor solution previously prepared in a separate 96 wells/plate.
Pipette 20 μl/well of the working solution prepared above. Incubate the reactions for 30 min at 37° C., protected from light. Because the assay is continuous (not terminated), fluorescence may be measured at multiple time points to follow the kinetics of the reactions. Measure the fluorescence in a fluorescence microplate reader using excitation in the range of 530-560 nm and emission detection at ˜590 nm. Ec50s were determined with GraphPad Prism. Ki is calculated based on Cheng-Prusoff equation.

human FOLH1 = human FOLH1 (Homo sapiens (Human), UniProt Q04609); assay: SPR analysis of binding kinetics to biotinylated FOLH1 (Biacore 8K); conditions: ligand PSMA; for Kon: association rate; for koff: dissociation rate; for Kd: kinetic 1:1 binding model
human FOLH1, sequence (Q04609 whole entry): as above
Description: The interaction of PSMA-binding variants with human FOLH1 was measured with Surface Plasmon Resonance (SPR) technology. Biotinylated FOLH1 was captured at a concentration of 30 μg/mL onto a Streptavidin chip.
Binding kinetics of the analytes were measured with a Biacore 8K instrument in two-fold serial dilutions starting at 500 nM down to 1.95 nM in single cycle kinetic measurements. After each cycle, needles were washed with 50% DMSO. To measure the association to the FOLH1 protein, the samples were injected with a flow rate of 30 μL/min for 90 s, followed by 1200 s buffer only to detect the dissociation. The used running buffer was 1×PBS with 0.05% Tween20 and 2% DMSO. The relative response units (RU, Y-axis) are plotted against time (s, X-axis) and analyzed in a kinetic 1:1 binding model.
In a different setup, biotinylated FOLH1 was captured at a concentration of 0.8 μg/mL and the running buffer was 1×PBS with 0.05% Tween20.

| SMILES | IC50 [1] | Ki [1] | Kon (human FOLH1) | koff (human FOLH1) | Kd (human FOLH1) |
| --- | --- | --- | --- | --- | --- |
| CC(=O)NCCOCCOCCOCCC(=O)NC[C@H]1CC[C@H](C(=O)N[C@@H](Cc2ccc(OCc3ccccc3)cc2)C(=O)NCCCC[C@H](NC(=O)N[C@@H](CCC(=O)O)C(=O)O)C(=O)O)CC1 [Compound 16] | 331 nM | 2.37 nM | 461000 1.ms | 0.00356 s⁻¹ | 7.73 nM |
| CC(=O)NCCOCCOCCOCCC(=O)NC[C@H]1CC[C@H](C(=O)N[C@@H](Cc2ccccc2)C(=O)NCCCC[C@H](NC(=O)N[C@@H](CCC(=O)O)C(=O)O)C(=O)O)CC1 [Compound 17] | 92.6 nM | 0.662 nM | 125000 1.ms | 0.000207 s⁻¹ | 1.65 nM |
| CC(=O)NCCOCCOCCOCCC(=O)NC[C@H]1CC[C@H](C(=O)N[C@@H](Cc2ccc(C(=O)O)cc2)C(=O)NCCCC[C@H](NC(=O)N[C@@H](CCC(=O)O)C(=O)O)C(=O)O)CC1 [Compound 21] | 201 nM | 1.44 nM | 183000 1.ms | 0.00194 s⁻¹ | 10.6 nM |
| CC(=O)NCCOCCOCCOCCC(=O)NC[C@H]1CC[C@H](C(=O)N[C@@H](Cc2ccc3ccccc3c2)C(=O)NCCCC[C@H](NC(=O)N[C@@H](CCCC(=O)O)C(=O)O)C(=O)O)CC1 [Compound 24] | 3350 nM | 24 nM | 305000 1.ms | 0.0107 s⁻¹ | 35.2 nM |
| CC(=O)NCCOCCOCCOCCC(=O)N(CCCOc1ccc(F)cc1F)CC(=O)NC[C@H]1CC[C@H](C(=O)N[C@@H](Cc2ccc3ccccc3c2)C(=O)NCCCC[C@H](NC(=O)N[C@@H](CCC(=O)O)C(=O)O)C(=O)O)CC1 [Compound 39] | 50.5 nM | 0.361 nM | 223000 1.ms | 0.00024 s⁻¹ | 1.08 nM |
| CC(=O)NCCOCCOCCOCCC(=O)N[C@@H](CCCOc1ccc(F)cc1F)C(=O)NC[C@H]1CC[C@H](C(=O)N[C@@H](Cc2ccc3ccccc3c2)C(=O)NCCCC[C@H](NC(=O)N[C@@H](CCC(=O)O)C(=O)O)C(=O)O)CC1 [Compound 40] | 155 nM | 1.11 nM | 153000 1.ms | 0.000249 s⁻¹ | 1.62 nM |
| C=CC[C@H](NC(=O)CCOCCOCCOCCNC(C)=O)C(=O)NC[C@H]1CC[C@H](C(=O)N[C@@H](Cc2ccc3ccccc3c2)C(=O)NCCCC[C@H](NC(=O)N[C@@H](CCC(=O)O)C(=O)O)C(=O)O)CC1 [Compound 41] | 88.1 nM | 0.63 nM | 102000 1.ms | 0.000199 s⁻¹ | 1.95 nM |
| CC(=O)NCCOCCOCCOCCC(=O)NC[C@H]1CC[C@H](C(=O)N[C@@H](Cc2ccc3ccccc3c2)C(=O)NCCCC[C@H](NC(=O)N[C@@H](CCc2n[nH]c(=O)o2)C(=O)O)C(=O)O)CC1 [Compound 48] | 10300 nM | 73.5 nM | – | – | 1650 nM |
| CC(=O)NCCOCCOCCOCCC(=O)NC[C@H]1CC[C@H](C(=O)N[C@@H](Cc2ccc3ccccc3c2)C(=O)NCCCC[C@H](NC(=O)N[C@@H](Cc2ccco2)C(=O)O)C(=O)O)CC1 [Compound 49] | 16500 nM | 118 nM | – | – | 3080 nM |
| CC(=O)NCCOCCOCCOCCC(=O)N[C@@H](CCCOc1cc(C#N)cc(C#N)c1)C(=O)NCC(=O)N[C@@H](Cc1ccc2ccccc2c1)C(=O)NCCCC[C@H](NC(=O)N[C@@H](CCC(=O)O)C(=O)O)C(=O)O [Compound 52] | 26.1 nM | 0.187 nM | 291000 1.ms | 0.000326 s⁻¹ | 1.12 nM |
| CC(=O)NCCOCCOCCOCCC(=O)N1C[C@H](NC(=O)COc2cc(C#N)cc(C#N)c2)C[C@H]1C(=O)N[C@@H](Cc1ccc2ccccc2c1)C(=O)NCCCC[C@H](NC(=O)N[C@@H](CCC(=O)O)C(=O)O)C(=O)O [Compound 79] | 7.79 nM | 0.0557 nM | 137000 1.ms | 0.000515 s⁻¹ | 3.76 nM |
